Source: patent US20210405025A1, “IDENTIFYING COMPOUNDS FOR TREATING CANCER AND USE THEREOF” (THE UAB RESEARCH FOUNDATION, priority 2018, published 2021)
Like-named read-outs stand apart in the source and are kept apart here.

Tests used:
relapsed AML cells = test: Drug sensitivity assay, 1,536-well, 3-day culture with individual approved drugs at 10 μM, viability by alamarBlue; format: cell-based, human; conditions: number of relapsed AML cases out of 18 tested with >70% cell death; 10 μM, 3-day culture
In short: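 FACS-sorted viable myeloid blasts from thawed AML samples, 4,000-4,500 cells per 5 μL well, cultured in IMDM with 15% BIT, SCF, FLT3L, IL-3, G-CSF. Drugs added per well; after three days percentage of live cells measured to gauge killing.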

AML patient samples = test: 10-point dose-response drug screen of statins against AML patient samples, 3-day drug sensitivity assay; format: cell-based, human; conditions: for IC50: 3-day assay; for statin-mediated killing: highly sensitive cases 285, 340 and 290, result in words
Experimental: Drug sensitivity assays were performed using a 1,536-well platform where all cells and reagents were deposited in wells using an acoustic liquid handling unit that is highly accurate for dispensing of nanoliter volumes of liquid. […] After dispensing the cells into the wells, an independent drug at a known concentration is added to each well and incubated with the cells. After three days, the percentage of live cells in each well is determined to assess the killing efficiency of each compound. […] Cell viability assays are known to those of skill in the art. See, for example, Pemovska et al., Individualized systems medicine strategy to tailor treatments for patients with chemorefractory acute myeloid leukemia. Cancer Discovery 3:1416-1429, 2013; Pabst et al., Identification of small molecules that support human leukemia stem cell activity ex vivo. Nature Methods 11:436-442, 2014; Baccelli et al., A novel approach for the identification of efficient combination therapies in primary human acute myeloid leukemia specimens. Blood Cancer Journal 7:e529, 2017. In studies described herein, the 1,536-well format was utilized, which allowed for use of four times fewer cells as well as less drug and media components due to the small assay volume of 5 microliters. […] Other compounds like CellTiter-Glo (Promega, Madison, Wis.) are equally appropriate reagents for determining cell viability.
Conditions for the drug screening assays were as described in Pabst et al., Identification of small molecules that support human leukemia stem cell activity ex vivo, Nature Methods 11:436-442, 2014). Using this protocol, cells were cultured in Iscove's Modified Dulbecco's Medium (IMDM), 15% BIT (bovine serum albumin, insulin, transferrin; Stem Cell Technologies 09500 (Vancouver, Calif.)), 100 ng/ml SCF (Shenandoah 100-04 (Warwick, Pa.)), 50 ng/ml FLT3L (Shenandoah 100-21), 20 ng/ml IL-3 (Shenandoah 100-80), 20 ng/ml G-CSF (Shenandoah 100-72), 10^-4 M β-mercaptoethanol, gentamicin (50 μg/ml) and ciprofloxacin (10 μg/ml).
Cells were removed from liquid nitrogen and placed in a 37° C. bath, just until thawed. For 1,536-well screens utilizing 6,000 wells about 100 million cells were thawed. The volume was doubled with pre-warmed culture media and placed on ice for about one to two minutes. The cells were brought to a final volume of about 8 to 10 mL before spinning down at 1,100 rpm for 5 min at 10° C. The pelleted cells were resuspended in 10 mL of culture media and plated in a tissue-culture treated T75 flask at a density of 1 to 2 million cells/ml. The cells were cultured overnight prior to fluorescence-activated cell sorting of viable cells on the following day.
After cells were cultured overnight, a cell scraper was used to remove any cells that adhered to the plastic. The cells were gently pipetted up and down to break up aggregates. Then, the entire volume was transferred to a 50 mL conical tube through a 70 micron cell strainer to remove cell clumps. The T75 flask was rinsed and scraped with about 10 mL HBSS and transferred to the same 50 mL conical tube through the strainer. The harvested cells were spun down at 1,100 rpm for 5 min at 10° C. The cells were then resuspendd in about 300-500 microliters FACS buffer (HBSS+2% FBS+1× propidium iodide) and transferred to a FACS tube. The tube was placed on ice and viable cells that are forward- and side-scatter gated on viable myeloid blasts were sorted by FACS (the scatter gate should exclude small lymphocytes, large myeloid cells, and debris). After sorting the required number of viable cells, the cells were spun down at 1,100 rpm for 5 min at 10° C. and subsequently resuspended at 4,000-4,500 cells per 5 microliter volume of complete culture media with growth factors and penicillin/streptomycin.

[1] = target: cGMP-inhibited phosphodiesterase (PDE3); conditions: cited from earlier work
[2] = read-out: In vivo cMax; plasma concentration achievable in vivo at the FDA-recommended dose and schedule; cited from earlier work
[3] = Homo sapiens, 72 h, patient sample AML 285, read-out: IC50 AML 285
[4] = Homo sapiens, 72 h, patient sample AML 290, read-out: IC50 AML 290
[5] = Homo sapiens, 72 h, patient sample AML 297, read-out: IC50 AML 297
[6] = Homo sapiens, 72 h, patient sample AML 299, read-out: IC50 AML 299
[7] = Homo sapiens, 72 h, patient sample AML 307, read-out: IC50 AML 307
[8] = Homo sapiens, 72 h, patient sample AML 330, read-out: IC50 AML 330
[9] = Homo sapiens, 72 h, patient sample AML 339, read-out: IC50 AML 339
[10] = Homo sapiens, 72 h, patient sample AML 340, read-out: IC50 AML 340
[11] = Homo sapiens, 72 h, patient sample AML 343, read-out: IC50 AML 343
[12] = Homo sapiens, 72 h, patient sample AML 280, read-out: IC50 AML 280
[13] = patient sample AML 280, read-out: IC50 AML 280
[14] = patient sample AML 285, read-out: IC50 AML 285
[15] = patient sample AML 290, read-out: IC50 AML 290
[16] = patient sample AML 297, read-out: IC50 AML 297
[17] = patient sample AML 299, read-out: IC50 AML 299
[18] = patient sample AML 307, read-out: IC50 AML 307
[19] = patient sample AML 330, read-out: IC50 AML 330
[20] = patient sample AML 339, read-out: IC50 AML 339
[21] = patient sample AML 340, read-out: IC50 AML 340
[22] = patient sample AML 343, read-out: IC50 AML 343

| Structure (SMILES) | #Cases >70% cell death (relapsed AML cells) | IC50 (AML patient samples; [3]) | IC50 (AML patient samples; [4]) | IC50 (AML patient samples; [5]) | IC50 (AML patient samples; [6]) | IC50 (AML patient samples; [7]) | IC50 (AML patient samples; [8]) | IC50 (AML patient samples; [9]) | IC50 (AML patient samples; [10]) | IC50 (AML patient samples; [11]) | IC50 (AML patient samples; [12]) | IC50 (AML patient samples; [13]) | IC50 (AML patient samples; [14]) | IC50 (AML patient samples; [15]) | IC50 (AML patient samples; [16]) | IC50 (AML patient samples; [17]) | IC50 (AML patient samples; [18]) | IC50 (AML patient samples; [19]) | IC50 (AML patient samples; [20]) | IC50 (AML patient samples; [21]) | also measured |
| --- | --- | --- | --- | --- | --- | --- | --- | --- | --- | --- | --- | --- | --- | --- | --- | --- | --- | --- | --- | --- | --- |
| CCC(C)(C)C(=O)O[C@H]1C[C@@H](C)C=C2C=C[C@H](C)[C@H](CC[C@@H]3C[C@@H](O)CC(=O)O3)[C@H]21 [SIMVASTATIN] | 6 | > 10 µM | > 10 µM | 6.94 µM | > 10 µM | > 10 µM | > 10 µM | 5.08 µM | > 10 µM | > 10 µM | – | – | – | – | – | – | – | – | – | – | – |
| COc1cc2c(cc1OC)-c1c/c(=N\c3c(C)cc(C)cc3C)n(C)c(=O)n1CC2.Cl [TREQUINSINçHCL] | 1 | – | – | – | – | – | – | – | – | – | – | – | – | – | – | – | – | – | – | – | IC50 [1]: 0.00025 µM |
| CC[C@H](C)C(=O)O[C@H]1C[C@@H](C)C=C2C=C[C@H](C)[C@H](CC[C@@H]3C[C@@H](O)CC(=O)O3)[C@H]21 [LOVASTATIN] | 2 | 3.81 µM | 4.41 µM | > 10 µM | > 10 µM | > 10 µM | > 10 µM | > 10 µM | 8.92 µM | > 10 µM | > 10 µM | – | – | – | – | – | – | – | – | – | – |
| CC[C@H](C)C(=O)O[C@H]1C[C@H](O)C=C2C=C[C@H](C)[C@H](CC[C@@H](O)C[C@@H](O)CC(=O)O)[C@H]21 [PRAVASTATIN] | 1 | > 10 µM | > 10 µM | > 10 µM | > 10 µM | > 10 µM | > 10 µM | > 10 µM | > 10 µM | > 10 µM | > 10 µM | – | – | – | – | – | – | – | – | – | – |
| CC(C)n1c(/C=C/C(O)CC(O)CC(=O)O)c(-c2ccc(F)cc2)c2ccccc21 (stereo not drawn) [FLUVASTATIN] | 7 | 0.426 µM | 0.417 µM | > 10 µM | 3.81 µM | 1.58 µM | > 10 µM | 7.79 µM | 0.721 µM | > 10 µM | 2.42 µM | – | – | – | – | – | – | – | – | – | Cmax [2]: 490 nM |
| O=C([O-])C[C@H](O)C[C@H](O)/C=C/c1c(C2CC2)nc2ccccc2c1-c1ccc(F)cc1.O=C([O-])C[C@H](O)C[C@H](O)/C=C/c1c(C2CC2)nc2ccccc2c1-c1ccc(F)cc1.[Ca+2] [PITAVASTATIN CALCIUM] | 13 | – | – | – | – | – | – | – | – | – | – | 1.35 µM | 0.157 µM | 0.149 µM | > 10 µM | 1.81 µM | 0.726 µM | 9.83 µM | 5.24 µM | 0.475 µM | statin-mediated killing (AML patient samples): most significant activity; IC50 (AML patient samples; [22]): > 10 µM; Cmax [2]: 250 nM |
| CC(C)c1nc(N(C)S(C)(=O)=O)nc(-c2ccc(F)cc2)c1/C=C/[C@@H](O)C[C@@H](O)CC(=O)[O-].CC(C)c1nc(N(C)S(C)(=O)=O)nc(-c2ccc(F)cc2)c1/C=C/[C@@H](O)C[C@@H](O)CC(=O)[O-].[Ca+2] [ROSUVASTATIN CALCIUM (Crestor), ROSUVASTATIN CALCIUM] | 9 | – | – | – | – | – | – | – | – | – | – | 8.35 µM | 1.47 µM | 1.46 µM | > 10 µM | > 10 µM | 3.79 µM | > 10 µM | > 10 µM | 2.52 µM | IC50 (AML patient samples; [22]): > 10 µM |
| CC(C)c1c(C(=O)Nc2ccccc2)c(-c2ccccc2)c(-c2ccc(F)cc2)n1CC[C@@H](O)C[C@@H](O)CC(=O)[O-].CC(C)c1c(C(=O)Nc2ccccc2)c(-c2ccccc2)c(-c2ccc(F)cc2)n1CC[C@@H](O)C[C@@H](O)CC(=O)[O-].[Ca+2] [ATORVASTATIN CALCIUM] | 12 | – | – | – | – | – | – | – | – | – | – | 2.24 µM | 0.475 µM | 0.584 µM | > 10 µM | 2.9 µM | 1.09 µM | > 10 µM | 9.12 µM | 0.732 µM | statin-mediated killing (AML patient samples): most significant activity; IC50 (AML patient samples; [22]): > 10 µM |
| C#Cc1cccc(Nc2ncnc3cc(OCCOC)c(OCCO)cc23)c1 [OSI-420] | 3 | – | – | – | – | – | – | – | – | – | – | – | – | – | – | – | – | – | – | – | – |
| Cc1nnc(NS(=O)(=O)c2ccc(N)cc2)s1 [SULFAMETHIZOLE] | 18 | – | – | – | – | – | – | – | – | – | – | – | – | – | – | – | – | – | – | – | – |
